We go through nine compounds from ChEMBL document CHEMBL5614432, “NRF2 inhibitors: Recent progress, future design and therapeutic potential” (Eur J Med Chem, 2024).

One experiment concerns the target NRF2-MAFG (Homo sapiens, UniProt O15525+Q16236). Kind of experiment: Inhibition of NRF2/MAFG (unknown origin) heterodimerization using fluorescein-labeled ARE DNA duplex as substrate preincubated for 1 hr followed by substrate addition measured after 1 hr by FP assay. It counts as protein-complex assay.
In the next experiment the test system is THP-1. The experiment is described as follows: Cytotoxicity against human THP-1 cells incubated for 48 hrs by CCK8 assay. The experiment is classed as functional, cell-based. Conditions: THP-1, 48 h. (In general: Tetrazolium dyes change colour on reduction, which living cells bring about.)
The nature of another experiment: cells. Conditions: Homo sapiens, Bel-7402, 48 h.
Experiment [1] concerns the target T1, Nuclear factor erythroid 2-related factor 2 (Homo sapiens, UniProt Q16236).
T1 sequence (Q16236 whole entry): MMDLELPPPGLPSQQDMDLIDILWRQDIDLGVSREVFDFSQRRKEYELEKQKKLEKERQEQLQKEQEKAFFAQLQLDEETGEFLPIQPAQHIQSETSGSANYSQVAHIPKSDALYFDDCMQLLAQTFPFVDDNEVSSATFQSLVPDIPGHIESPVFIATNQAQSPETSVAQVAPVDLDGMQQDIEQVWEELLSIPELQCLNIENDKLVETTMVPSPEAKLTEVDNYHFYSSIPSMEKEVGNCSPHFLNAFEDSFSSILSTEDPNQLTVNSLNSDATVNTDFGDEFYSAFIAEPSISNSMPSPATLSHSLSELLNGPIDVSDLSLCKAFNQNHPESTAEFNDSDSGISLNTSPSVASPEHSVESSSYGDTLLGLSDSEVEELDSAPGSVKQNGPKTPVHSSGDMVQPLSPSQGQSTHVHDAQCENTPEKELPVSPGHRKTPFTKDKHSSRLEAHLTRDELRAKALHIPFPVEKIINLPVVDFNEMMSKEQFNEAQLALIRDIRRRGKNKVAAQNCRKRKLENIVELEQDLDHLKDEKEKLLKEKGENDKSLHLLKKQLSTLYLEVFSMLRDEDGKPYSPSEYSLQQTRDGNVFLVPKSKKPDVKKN
The experiment is described as follows: Inhibition of NRF2 in human KYSE-70 cells. The experiment is classed as cell-based.

Experiment [2] addresses T1, Nuclear factor erythroid 2-related factor 2. The experiment is described as follows: Inhibition of NRF2 in human A549 cells. It counts as cell-based.
In another experiment the test system is T98G. Kind of experiment: Inhibition of cell viability in human T98G cells incubated for 24 hrs by MTT assay. It counts as functional, cell-based.
The next experiment deals with U-87 MG. The experiment is described as follows: Inhibition of cell viability in human U-87 MG cells incubated for 24 hrs by MTT assay. It counts as functional, cell-based, U-87MG ATCC.
Another experiment deals with A2780. Kind of experiment: Inhibition of cell growth of human A2780 cells incubated for 24 to 96 hrs with re-current replacement of media containing compound for every 48 hrs by CCK8 assay. The experiment is classed as functional, cell-based.
Another experiment concerns Caov-4. Kind of experiment: Inhibition of cell growth of human Caov-4 cells incubated for 24 to 96 hrs with re-current replacement of media containing compound for every 48 hrs by CCK8 assay. It counts as functional, cell-based.
The test system of the next experiment is SK-OV-3. Kind of experiment: Inhibition of cell growth of human SK-OV-3 cells incubated for 24 to 96 hrs with re-current replacement of media containing compound for every 48 hrs by CCK8 assay. It counts as functional, cell-based.
The nature of experiment [3]: Cytotoxicity against human Leukemic stem cells incubated for 72 hrs by MTT assay. It counts as functional, cell-based. The following applies: Leukemic stem cell.
The nature of experiment [4]: Cytotoxicity against human MCF7-DOX cells incubated for 24 hrs by MTT assay. The experiment is classed as functional, cell-based.

NRF2-MAFG, sequence (O15525 whole entry, one chain of several): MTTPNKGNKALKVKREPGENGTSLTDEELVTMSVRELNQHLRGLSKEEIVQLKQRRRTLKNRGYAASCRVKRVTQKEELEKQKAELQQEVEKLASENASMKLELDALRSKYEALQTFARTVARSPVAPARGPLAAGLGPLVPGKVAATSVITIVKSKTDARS
Description for cells: Cytotoxicity against human BEL-7402/ADM cells incubated for 48 hrs by MTT assay

Take `Cc1ccccc1C(=O)N1CCc2cc(-c3nc(NC(=O)Cc4ccc5c(c4)OCO5)sc3C)ccc21`: 1.9 µM corresponded to half-maximal inhibition on NRF2-MAFG (IC50).

Consider `CC(C)(C)c1ccc(Cn2nc(-c3ccc(Cl)cc3)cc2C(=O)NO)cc1`, for which half-maximal inhibition in the experiment on THP-1 (IC50) required 5.33 µM.

`O=c1cc(-c2ccc(O)cc2)oc2cc(O)cc(O)c12` [APIGENIN]: the IC50 (in general, the point on the concentration scale where inhibition reaches its midpoint) in the experiment “cells” is approximately 50 µM.

`O=c1cc(-c2ccccc2)oc2cc(O)cc(O)c12` [CHRYSIN] gave a 50% inhibitory concentration (IC50) in “cells” of approximately 30 µM.

Take `O=C(CC1NCCCC1O)Cn1cnc2cc(Br)c(Cl)cc2c1=O` (stereo not drawn) [HALOFUGINONE]: the IC50 was found to be 0.0223 µM in [1] and 0.0372 µM in experiment [2].

As for `CC(C)c1cccc(=O)c(O)c1` [HINOKITIOL], the IC50 with T98G amounted to 152 µM; with U-87 MG, 316 µM.

On to `N#CC1(c2ccc(NC(=O)c3cccnc3NCc3ccncc3)cc2)CCCC1` [RIVOCERANIB], for which the concentration for half-maximal inhibition (IC50) with A2780, with Caov-4 and in the experiment with SK-OV-3 was approximately 20 µM in each case.

For the compound `CC(C)[C@]12O[C@H]1[C@@H]1O[C@]13[C@]1(O[C@H]1C[C@H]1C4=C(CC[C@@]13C)C(=O)OC4)[C@@H]2O` [TRIPTOLIDE], in [3], the 50% inhibitory concentration (IC50) came out at 0.0205 µM.

Take `COc1c(O)cc(O)c2c(=O)cc(-c3ccccc3)oc12` [WOGONIN]: the IC50 in experiment [4] is approximately 150 µM.
